Data from patent publication US20110123623A1, “RHAMNOLIPID MECHANISM” (priority 2009, published 2011).
Where “and” joins values, the source holds several entries; their conditions need not be identical. Equal values may be shown once. Read-outs that look alike come from different tables or passages of the source.

How the values were obtained:
[1] = system: neonatal human keratinocytes; assay: Neonatal human keratinocyte cell culture (proliferation, viability, apoptosis); format: cell-based
Experimental: On the contrary, Di-rhamnolipid W3CTS in the presence of serum and at high concentration of calcium increased the proliferation and the viability of keratinocytes and decreased the caspase activity. At the concentration of 50 μg/ml, Di-rhamnolipid W3CTS maximally stimulated the proliferation (34%) and the viability of keratinocytes (25%) as compared to control, and decreased the apoptosis (49%).

[2] = Neonatal human fibroblast cell culture (proliferation, viability, apoptosis); format: cell-based; details: human, neonatal human fibroblasts; 100 μg/ml; presence of serum; read-out: inhibition of viability of fibroblasts
Experimental: (§1) At the same concentration of 100 μg/ml W3CTS increased apoptosis by 72%.

[3] = system: neonatal human fibroblasts; assay: as above; format: cell-based
Experimental: as §1

[4] = target: dopamine D1 (human recombinant) (Homo sapiens, UniProt P21728); assay: Dopamine D1 receptor binding of [3H]SCH23390; details: 100 μM in 0.5% DMSO
Chain of dopamine D1 (human recombinant) (P21728 whole entry): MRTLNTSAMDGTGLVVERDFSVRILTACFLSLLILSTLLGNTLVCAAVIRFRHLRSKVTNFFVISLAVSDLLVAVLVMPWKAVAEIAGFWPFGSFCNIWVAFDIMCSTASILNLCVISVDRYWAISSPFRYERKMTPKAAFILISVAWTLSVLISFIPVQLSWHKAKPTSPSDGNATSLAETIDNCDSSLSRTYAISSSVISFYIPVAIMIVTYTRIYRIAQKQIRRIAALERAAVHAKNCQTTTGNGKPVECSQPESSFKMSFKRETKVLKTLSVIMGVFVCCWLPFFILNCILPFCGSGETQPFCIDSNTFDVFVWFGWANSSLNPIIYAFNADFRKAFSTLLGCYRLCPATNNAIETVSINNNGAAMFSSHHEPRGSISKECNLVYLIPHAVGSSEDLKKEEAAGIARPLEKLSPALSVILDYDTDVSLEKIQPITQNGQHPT
Experimental: At the concentration of 100 μM Di-rhamnolipid W3CTS in 0.5% DMSO, Di-rhamnolipid W3CTS inhibited 100% dopamine D1 (human recombinant) binding of [^3H] SCH23390. At the same concentration of 100 μM W3CTS in 0.5 DMSO measuring binding of [^3H]Spiperone to human dopamine D2L (human recombinant) was inhibited by 53%.

BALB/c male mice = assay: Immunostimulation (humoral); format: in vivo, mouse
Text: (§2) Immunostimulation (humoral) in BALB/c male mice and Immunosuppression (humoral)^(2,7) on ICR male mice were negative.

ICR male mice = assay: Immunosuppression (humoral); format: in vivo, mouse
Text: as §2

C. albicans = assay: Immunomodulation activity: C. albicans challenge survival; format: in vivo, mouse; details: 100 mg/kg i/p 24 hours before i/v C. albicans challenge; ICR male mice
Experimental: Di-rhamnolipid W3CTS was administered i/p (100 mg/kg) to groups of 10 ICR derived male mice weighing 24±2 g at 24 hours before i/v challenge with a suspension of C. albicans (1×10^7 cfu/mouse) sufficient to result in 90-100% mortality within 10 days in vehicle treated animals. Survival of 20 percent or more (≧20) of the animals is considered significant and indicates possible immunomodulation activity. Reference agent was lipopolysaccharide 0.3 mg/kg i/p.

nude guinea pigs = assay: DNCB induced delayed type hypersensitivity in nude guinea pigs; format: in vivo, guinea pig
Experimental: The nude guinea pig is used as a test animal because of different animal skins; nude guinea pig skin is claimed to be the one closest resembling human skin.
In DNCB sensitized guinea pigs delayed type hypersensitivity reactions were induced with patches soaked with 0.25% (w/v) DNCB in ethanol/propylene glycol kept on the animals back for 24 hours. The test sites were treated twice daily during 7 days with: Dovonex ointment ([…]), 1% Di-rhamnolipid W3CTS in Vaseline, vehicle and untreated area. […] Dovonex has been improved by time.

[5] = system: female Swiss-Webster mice; format: in vivo; details: for MORTAL. / SIGNIFICANT FINDINGS: 7 days
Experimental: Multi-dose toxicity study of Di-rhamnolipid W3CTS administered subcutaneously in female Swiss-Webster mice for 7 days recovery period. The effects of 7 daily subcutaneous injections of the 99.3% pure Di-rhamnolipid W3CTS, followed by 7-day recovery period, were determined in female Swiss-Webster mice. Five groups (3 mice per group) were administered W3CTS doses at 0.012; 1, 2; 60 and 120 mg/kg/day and vehicle. All animals were observed and weighed throughout the study for clinical signs of toxicity including skin injection sites. On study Day 13 (seven days after last injection, 6 days for group 5) all animals were euthanized. The thymus, liver, kidneys, spleen, heart and lungs were weighed and preserved.
No mortality occurred at any dose level. […] Abnormal clinical observations at some animals at groups (60 and 120 mg/kg) were limited to skin lesions at the injection sites. All skin lesions were healing at termination.
At necropsy, two animals from group 120 mg/kg had moderate enlargement of the spleen and liver and adhesions between liver, spleen, kidneys and peritoneum were seen also in one animal (See Table 1).
Histopathology of spleen, thymus, and liver and selected skin site lesions was performed on tissues from high dose group animals and one control. […] Histopathologic features of skin lesions included evidence of chronic active inflammation, co-existing with progressing ulceration and/or healing.

[6] = system: normal Sprague-Dawley rats; assay: Full-thickness burn wounds, topical treatment; format: in vivo, rat
Experimental: The effects of Di-rhamnolipid W3CTS on full-thickness burn wounds in normal Sprague-Dawley rats.
Di-rhamnolipid W3CTS was prepared in a eucerine ointment applied topically on full-thickness burn wounds in normal Sprague-Dawley rats covering 5% of the whole skin area. The rate of wound closure was measured over the period of 45 days. The collagen content was evaluated microscopically, by performing densitometric analysis on Verhoeff's stained histopathological slides of wound biopsies taken at the end of 45th day of di-rhamnolipid treatment. The treatment of full thickness-burn wounds covering 5% of the whole body skin area with topical applications (2 per day) of 0.1% di-rhamnolipid in eucerine ointment accelerated the closure of wounds on day 21 of the treatment by 32% compared to the control (p<0.05). […] The results of this study raise the possibility of potential efficacy of di-rhamnolipid in accelerating normal wound healing and perhaps in overcoming defects associated with healing failure in chronic wounds.

psoriatic patients = assay: Physician sponsored treatment of psoriatic patients (PASI); format: in vivo, human
Text: Twelve psoriatic hospital bed patients, and one patient with seborrheic dermatitis and psoriasis, one patient with lichen planus and one with dermatitis cicumscripta unilocullaris as an out clinic patient were recruited as study volunteers.
Abbreviations: PASI=Psoriasis Area Severity Index (Erythema, Infiltration and Scaling); PVP=Psoriasis Vulgaris in Placibus; d=days; m=months; y=years; ster=steroids (treated)

[7] = 200 μg/ml and 500 μg/ml, causing necrosis

## CCCCCCCC(CC(=O)O)OC(=O)CC(CCCCCCC)OC1OC(C)C(O)C(O)C1OC1OC(C)C(O)C(O)C1O (centres unmarked) [Di-rhamnolipid W3CTS]
[1]; 50 μg/ml, serum, high calcium
  decrease of apoptosis of keratinocytes: 49%
  stimulation of proliferation of keratinocytes vs control: 34%
  stimulation of viability of keratinocytes vs control: 25%
[1]; [7]
  cell proliferation and viability, keratinocytes: fully inhibited cell proliferation and viability
[1]; without serum, low calcium, 100 μg/ml, caused necrosis
  proliferation and viability of keratinocytes: fully inhibited proliferation and viability
[2]
  cytotoxicity at 100 μg/ml: 28%
[3]; 100 μg/ml, presence of serum
  increase of apoptosis of fibroblasts: 72%
[3]; [7]
  cell proliferation and viability, fibroblasts: fully inhibited cell proliferation and viability
[3]; Homo sapiens, Fibroblast, 100 μg/ml, presence of serum
  inhibition at 100 µg/mL: 46%
[4]
  inhibition at 100 µM: 100%
BALB/c male mice
  Immunostimulation (humoral): negative
ICR male mice
  Immunosuppression (humoral): negative
C. albicans
  immunomodulation activity (survival of 20 percent or more considered significant): possible significant immunomodulation activity
Nude guinea pigs; 1% in Vaseline, preliminary data
  anti-inflammatory effect in the model: very strong anti-inflammatory effect
Nude guinea pigs; treated twice daily during 7 days, W3CTS 1% in Vaseline
  state of test areas by day 7: healed
[5]; 0.012 mg/kg/day s.c.
  MORTAL.: 0/3
  SIGNIFICANT FINDINGS: None
[5]; 1.20 mg/kg/day s.c.
  MORTAL.: 0/3
  SIGNIFICANT FINDINGS: None
[5]; 60 mg/kg/day s.c.
  MORTAL.: 0/3
[5]; 120 mg/kg/day s.c.
  Histopathology: extramedullary hematopoiesis (mice): mouse, extramedullary hematopoiesis in 2
  Histopathology: thymic involution (mice): Histopathology: thymic involution in 1
  Necroscopy findings: adhesions between the liver and the spleen, kidneys and peritoneum (mice): spleen, kidneys and peritoneum (1/3
  MORTAL.: 0/3
[6]; 0, 1% in eucerine, biopsies at end of 45th day, p<0.05
  decrease of collagen content in burn wounds vs vehicle: 47.5%
[6]; 0.1% in eucerine ointment, 2 per day topical, day 21, p<0.05
  acceleration of closure of wounds vs control: 32%
[6]; 0.1% ointment, day 35
  wound closure: wounds closed in all animals
Psoriatic patients; 1.0% eucerin ointment, 15-40 treating days, one patient per line
  Psoriasis Area Severity Index After Treatment W3CTS: 0.2 (5×) and 0.3 and 0.4 and 6 and 0.6 (2×) and 1.6 and 0.9
Psoriatic patients; 1 y (year), one patient per line
  Psoriasis Area Severity Index Extended Evaluation W3CTS: 1 y = 0
Psoriatic patients; 3 m (months), one patient per line
  Psoriasis Area Severity Index Extended Evaluation W3CTS: 3 m = 0 (2×) and 3 m relapse and 3 m = 0.1
Psoriatic patients; baseline of W3CTS treated lesions, one patient per line
  Psoriasis Area Severity Index Before Treatment W3CTS: 9.6 (2×) and 8.1 (3×) and 10.8 (4×) and 14.4 and 5.4 and 8.4
Psoriatic patients; some of the patients
  duration free of psoriatic lesions: free of psoriatic lesions up to seven years
